Experiments:
[1] = biological target: human mGlu1 (Homo sapiens, UniProt Q13255); test: Calcium mobilization mGlu1 assay; conditions: for preference in mGlu1 NAM activity for the R-enantiomer versus the S-enantiomer: 15 vs 14, 17 vs 16; for LLE (ligand-lipophilicity efficiency): LLE = pIC50 - cLogP
[2] = test system: rat models of neuropathic pain; conditions: cited from earlier work
[3] = test system: rat models of post-operative pain; conditions: cited from earlier work
[4] = biological target: rat mGlu1 (Rattus norvegicus, UniProt P23385); test: Functional cell based assay against rat mGlu1; conditions: HEK 293A TREx cells expressing rat mGlu1
Sequence of rat mGlu1 (P23385 19-1199): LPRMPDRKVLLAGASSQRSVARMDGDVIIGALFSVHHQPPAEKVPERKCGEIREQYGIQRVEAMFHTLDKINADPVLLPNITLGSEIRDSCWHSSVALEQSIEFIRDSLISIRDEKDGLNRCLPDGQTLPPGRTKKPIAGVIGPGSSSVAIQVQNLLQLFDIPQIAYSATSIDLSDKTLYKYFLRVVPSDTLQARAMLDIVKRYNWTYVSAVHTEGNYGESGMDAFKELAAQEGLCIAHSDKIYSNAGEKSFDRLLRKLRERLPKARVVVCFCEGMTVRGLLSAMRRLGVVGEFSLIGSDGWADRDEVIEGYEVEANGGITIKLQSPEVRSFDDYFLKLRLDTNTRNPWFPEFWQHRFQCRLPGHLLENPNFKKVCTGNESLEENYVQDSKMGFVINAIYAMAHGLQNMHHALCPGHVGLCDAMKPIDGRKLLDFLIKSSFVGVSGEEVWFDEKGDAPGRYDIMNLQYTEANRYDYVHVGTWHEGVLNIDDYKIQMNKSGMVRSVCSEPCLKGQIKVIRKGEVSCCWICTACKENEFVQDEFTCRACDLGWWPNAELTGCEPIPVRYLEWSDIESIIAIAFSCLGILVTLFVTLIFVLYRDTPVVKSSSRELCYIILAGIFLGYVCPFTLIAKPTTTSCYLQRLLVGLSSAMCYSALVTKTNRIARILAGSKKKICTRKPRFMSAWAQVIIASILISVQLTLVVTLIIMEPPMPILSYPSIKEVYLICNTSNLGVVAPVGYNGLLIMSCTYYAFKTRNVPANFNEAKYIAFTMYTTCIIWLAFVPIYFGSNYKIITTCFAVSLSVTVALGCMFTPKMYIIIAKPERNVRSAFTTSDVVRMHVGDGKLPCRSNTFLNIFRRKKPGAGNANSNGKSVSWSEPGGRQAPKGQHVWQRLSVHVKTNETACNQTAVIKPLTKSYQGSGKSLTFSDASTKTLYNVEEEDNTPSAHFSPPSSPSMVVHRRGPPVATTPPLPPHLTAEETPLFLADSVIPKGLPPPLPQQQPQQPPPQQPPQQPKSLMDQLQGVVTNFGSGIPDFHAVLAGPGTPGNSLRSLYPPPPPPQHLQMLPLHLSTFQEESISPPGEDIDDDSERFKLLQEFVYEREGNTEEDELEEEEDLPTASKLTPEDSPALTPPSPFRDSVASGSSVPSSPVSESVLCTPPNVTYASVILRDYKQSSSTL

[5] = test system: 68 clinically relevant GPCRs, ion channels, kinases, and transporters; test: Radioligand binding assay panel; conditions: 10 µM; significant = more than 50% inhibition of radioligand binding
[6] = test system: mGlu2–8; conditions: at 10 µM
[7] = IV dosing, rat, in words
[8] = in vivo; conditions: male, Sprague-Dawley, rat, plasma, iv, 0.2 mg/kg
[9] = test system: rat model of anxiety; conditions: cited from earlier work
[10] = test system: rat models of addiction; conditions: cited from earlier work
[11] = test system: squirrel monkey models of addiction; conditions: cited from earlier work
[12] = test system: acoustic prepulse inhibition models; conditions: cited from earlier work

Sequence of human mGlu1 (Q13255 19-1194): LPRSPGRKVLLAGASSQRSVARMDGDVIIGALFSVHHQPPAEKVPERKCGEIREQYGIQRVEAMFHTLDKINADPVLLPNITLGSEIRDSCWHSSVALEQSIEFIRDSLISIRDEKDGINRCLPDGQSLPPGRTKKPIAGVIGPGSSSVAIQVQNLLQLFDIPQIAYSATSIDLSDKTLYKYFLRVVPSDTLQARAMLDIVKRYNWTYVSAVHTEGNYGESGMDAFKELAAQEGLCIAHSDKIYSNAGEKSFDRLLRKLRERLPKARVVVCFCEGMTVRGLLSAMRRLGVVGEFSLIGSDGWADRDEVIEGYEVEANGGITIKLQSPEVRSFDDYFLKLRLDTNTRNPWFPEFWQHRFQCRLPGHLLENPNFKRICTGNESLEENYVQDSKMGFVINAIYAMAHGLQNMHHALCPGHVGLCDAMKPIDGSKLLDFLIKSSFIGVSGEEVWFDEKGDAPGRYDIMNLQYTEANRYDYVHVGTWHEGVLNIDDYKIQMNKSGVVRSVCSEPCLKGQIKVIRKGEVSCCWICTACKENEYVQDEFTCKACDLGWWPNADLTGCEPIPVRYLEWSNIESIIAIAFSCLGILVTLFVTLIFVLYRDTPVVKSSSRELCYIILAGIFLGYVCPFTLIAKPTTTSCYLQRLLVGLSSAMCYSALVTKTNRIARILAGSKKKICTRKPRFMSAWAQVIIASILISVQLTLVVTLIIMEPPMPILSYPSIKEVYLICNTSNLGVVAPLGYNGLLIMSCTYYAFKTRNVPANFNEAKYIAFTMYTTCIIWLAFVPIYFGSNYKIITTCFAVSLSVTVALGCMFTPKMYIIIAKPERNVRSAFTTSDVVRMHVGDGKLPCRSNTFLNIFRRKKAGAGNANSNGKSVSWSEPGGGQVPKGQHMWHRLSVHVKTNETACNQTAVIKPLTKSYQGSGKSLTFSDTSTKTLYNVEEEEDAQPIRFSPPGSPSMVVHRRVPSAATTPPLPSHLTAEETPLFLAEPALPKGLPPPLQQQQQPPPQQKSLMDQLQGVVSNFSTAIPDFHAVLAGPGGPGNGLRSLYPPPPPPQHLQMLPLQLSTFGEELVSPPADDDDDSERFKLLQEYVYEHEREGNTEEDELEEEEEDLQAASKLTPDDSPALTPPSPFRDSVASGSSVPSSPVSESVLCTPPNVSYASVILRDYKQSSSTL

## C[C@@H]1CN(c2ccccn2)CCN1C(=O)C12CC3CC(CC(C3)C1)C2 [Compound 15]
[1]
  preference in mGlu1 NAM activity for the R-enantiomer versus the S-enantiomer: 15 fold

## C[C@@H]1CN(c2ncccc2C#N)CCN1C(=O)C12CC3CC(CC(C3)C1)C2 [Compound 51]
[1]
  LLE (ligand-lipophilicity efficiency): 2.24

## C[C@@H]1CN(c2ccc(F)cn2)CCN1C(=O)C12CC3CC(CC(C3)C1)C2 [Compound 49]
[1]
  LLE (ligand-lipophilicity efficiency): 1.73

## CN(C)c1ccnc2sc3c(=O)n(N4CCCCCC4)cnc3c12 [Compound 2]
[2]
  analgesia in rat models of neuropathic pain: analgesic
[3]
  analgesia in rat models of post-operative pain: analgesic

## C[C@@H]1CN(c2cccnc2C#N)CCN1C(=O)C12CC3CC(CC(C3)C1)C2 [Compound 54]
[4]
  activity at rat mGlu1 compared with human mGlu1: little difference across species
[5]
  responses in radioligand binding panel of 68 targets: no significant responses
[6]
  activity against mGlu2–8: inactive
[7]
  clearance: moderate to high
  volume of distribution: moderate
[8]
  half-life: ~1 h

## C[C@@H]1CN(c2ccncc2C#N)CCN1C(=O)C12CC3CC(CC(C3)C1)C2 [Compound 53]
[1]
  LLE (ligand-lipophilicity efficiency): 2.89

## COC1CCC(C(=O)c2ccc3nc4c(cc3c2)CCCO4)CC1 (centres unmarked) [Compound 1]
[9]
  efficacy in a rat model of anxiety: efficacious
[10]
  efficacy in rat models of addiction: efficacious
[11]
  efficacy in squirrel monkey models of addiction: efficacious
[12]
  antipsychotic activity, acoustic prepulse inhibition models, mice: Antipsychotic activity

## C[C@@H]1CN(C(=O)C23CC4CC(CC(C4)C2)C3)CCN1c1ccncc1 [Compound 39]
[1]; 30 µM
  mGlu1 activity at the top concentration tested: no activity

## C[C@@H]1CN(c2cccc(F)n2)CCN1C(=O)C12CC3CC(CC(C3)C1)C2 [Compound 48]
[1]
  LLE (ligand-lipophilicity efficiency): 1.85

## C[C@@H]1CN(C(=O)C23CC4CC(CC(C4)C2)C3)CCN1c1ccccn1 [Compound 17]
[1]
  preference in mGlu1 NAM activity for the R-enantiomer versus the S-enantiomer: sixfold

## C[C@@H]1CN(c2ccccc2C#N)CCN1C(=O)C12CC3CC(CC(C3)C1)C2 [Compound 46]
[1]
  LLE (ligand-lipophilicity efficiency): 1.82

— paper PMC3875306 (Bioorganic & medicinal chemistry letters, 2013)
